The values that follow come from patent publication US9790218B2, “Small molecule activators of calcium-activated chloride channels and methods of use” (The Regents of the University of California, priority 2011, dated 2017).

The target in one assay is T1, TMEM16A (Homo sapiens, UniProt Q5XXA6, DEL476-501).
T1 construct: expressed in transfected cells
T1 sequence (Q5XXA6 with tags, fused parts or gaps isoform Q5XXA6-5 DEL539-564): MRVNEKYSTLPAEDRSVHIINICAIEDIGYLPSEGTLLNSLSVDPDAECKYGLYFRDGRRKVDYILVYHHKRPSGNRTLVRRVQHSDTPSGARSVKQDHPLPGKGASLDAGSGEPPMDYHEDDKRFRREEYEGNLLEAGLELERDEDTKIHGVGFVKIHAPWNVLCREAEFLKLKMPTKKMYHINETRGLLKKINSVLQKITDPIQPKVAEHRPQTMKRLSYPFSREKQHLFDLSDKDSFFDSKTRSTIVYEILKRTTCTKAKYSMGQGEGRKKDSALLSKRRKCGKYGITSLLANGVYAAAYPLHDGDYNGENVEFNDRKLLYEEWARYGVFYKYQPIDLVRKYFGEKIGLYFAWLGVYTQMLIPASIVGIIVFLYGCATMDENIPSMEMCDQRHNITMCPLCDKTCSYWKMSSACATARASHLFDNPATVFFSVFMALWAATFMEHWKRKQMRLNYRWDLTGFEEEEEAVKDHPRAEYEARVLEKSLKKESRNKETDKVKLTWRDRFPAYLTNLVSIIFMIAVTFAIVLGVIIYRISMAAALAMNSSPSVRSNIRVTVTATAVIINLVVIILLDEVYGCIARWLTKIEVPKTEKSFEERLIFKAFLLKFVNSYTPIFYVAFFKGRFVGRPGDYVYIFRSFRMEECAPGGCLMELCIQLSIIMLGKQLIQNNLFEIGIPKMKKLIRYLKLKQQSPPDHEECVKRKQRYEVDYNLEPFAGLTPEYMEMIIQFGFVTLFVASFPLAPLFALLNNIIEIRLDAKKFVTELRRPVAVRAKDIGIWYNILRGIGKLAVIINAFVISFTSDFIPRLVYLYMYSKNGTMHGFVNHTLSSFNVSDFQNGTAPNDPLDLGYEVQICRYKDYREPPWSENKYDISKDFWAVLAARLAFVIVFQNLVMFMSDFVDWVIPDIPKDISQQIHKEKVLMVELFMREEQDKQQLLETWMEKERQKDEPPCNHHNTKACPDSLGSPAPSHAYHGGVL
Put plainly: Fluorescence plate reader assay of TMEM16A-mediated I^− influx (YFP halide sensor). Type of assay: cell-based. The method, then: FRT cells were stably transfected with human TMEM16A (TMEM16A(abc), cDNA provided by Dr. Luis Galietta, Gaslini Institute, Genoa, Italy) and the halide sensor YFP-H148Q/1152L/F46L. Cells were plated in 96-well black-walled microplates (Corning Inc., Corning, N.Y.) at a density of 20,000 cells per well in Coon's modified F12 medium supplemented with 5% fetal calf serum, 2 mM L-glutamine, 100 U/mL penicillin and 100 μg/mL streptomycin. The human submandibular cell line A253 (ATCC HTB 41) was cultured in complete McCoy's 5A medium supplemented with 10% fetal bovine serum, 100 U/mL penicillin and 100 μg/mL streptomycin.
TMEM16A activators were identified from screening of ˜110,000 synthetic drug-like compounds, purified natural products and approved/investigational drugs. The cell-based screen employs FRT cells coexpressing human TMEM16A and the I^−-sensing yellow fluorescent protein YFP-H148Q/1152L/F46L. FRT cells were chosen because of their low basal I^− and Cl^− transport, rapid growth on uncoated plastic, strong stable expression of transfected proteins, and formation of tight junctions for measurements of transepithelial short-circuit current (Ma et al., supra).
High-throughput screening was done using an automated screening platform (Beckman) equipped with FluoStar fluorescence plate readers (BMG Lab Technologies, Durham, N.C.) as described (Ma et al., supra). Each well of a 96-well plate was washed 3 times with PBS (200 μL/wash), leaving 50 μL PBS. Test compounds (0.5 μL) were added to each well at […]. After 10 min, 96-well plates were transferred to a plate reader for fluorescence assay. Each well was assayed individually for TMEM16A-mediated I^− influx by recording fluorescence continuously (400 ms per point) for 2 s (baseline), then 50 μL of a 140 mM I^− solution was added. The initial rate of I^− influx was computed from fluorescence data by non-linear regression.
As diagrammed in FIG. 1A, test compounds at 25 μM final concentration were added 10 min prior to I^− addition. The 10 min incubation was chosen to allow for compound transport into cytoplasm and to minimize false positives from compounds that elevate cytoplasmic Ca^2+ transiently. Fluorescence from individual wells of 96-well plates was measured just prior to and for 6 s after I^− addition for computation of initial I^− influx rate.

In assay [1] the test system is human bronchi submucosal glands. Put plainly: Airway submucosal gland fluid secretion in human bronchi. Conditions: 30 μM T16Ainh-A01. The procedure:
FIG. 6A-C. Airway submucosal gland fluid secretion in human bronchi. FIG. 6A. TMEM16A immunohistochemistry in CF (left) and non-CF (right) human bronchi showing apical membrane expression in serous gland epithelial cells (arrows). Scale bar: 20 μm. FIG. 6B. Mucous (fluid) secretion in human bronchi. (top) Images of mucus bubbles formed under oil in response to basolateral application of 300 nM carbachol (CCh) and 20 μM Eact. TMEM16A was inhibited by 30 μM T16Ainh-A01. Individual fluid bubbles marked with arrowheads. Scale bar: 0.5 mm. (bottom) CCh and Eact-induced secretion rates. Where indicated, tissues were pre-treated with T16Ainh-A01 (30 μM). Each point is the average of measurements made from 20 glands (mean±S.E. * P<0.05). FIG. 6C. Summary of human gland fluid secretion rates measured at 20 min after addition of 20 μM Eact, and 30 min after application of 300 nM carbachol (CCh) and 10 μM forskolin (20-66 glands from 3 tracheas and 4 bronchus). In CF-bronchi, 6 glands from one donor were stimulated by Eact. […]
Similar staining was found in non-CF and CF human bronchi. Fluid secretion was measured in individual submucosal glands from the increasing size of mucus (fluid) bubbles in which airway fragments were mounted in a 37° C. perfusion chamber and the mucosal solution was covered with oil.

The structures appear in SMILES notation.

A word on the EC50: it is the concentration giving half of the maximal effect. A low value points to an effect from little substance. In the case of `O=C(Nc1ccc(Br)cc1)c1cccc(-n2cnnn2)c1` [Fact, N-(4-bromophenyl)-3-(1H-tetrazol-1-yl)benzamide], the response at TMEM16A was half-maximal at 37 µM (EC50). Moreover, at TMEM16A (synthesized F class analogs), the “TMEM16A conductance, F class SAR” value is “increased TMEM16A conductance”.

In the case of `CCc1c(C)nc(SCC(=O)Nc2nc(-c3ccc(OC)cc3)cs2)[nH]c1=O` [T16Ainh-A01, reference compound], in assay [1], the “effect of pre-treatment on gland fluid secretion” value is “abolished basal and agonist-stimulated gland fluid secretion”.
